In data set [1] the target is FGFR4 (h) (Homo sapiens, UniProt P22455). The data set is described as follows: FGFR4 (enzymatic assay), TR-FRET. The data set is classed as biochemical. The following applies: FGFR 4 pIC50, 5 μM ATP, 60 min; pIC50 = -log IC50 (M); average if tested multiple times. (In general: Time-resolved FRET reads energy transfer from a long-lived donor to a nearby acceptor.)
Data set [2] concerns the target FGFR2 (h) (Homo sapiens, UniProt P21802). The data set can be described thus: FGFR2 (enzymatic assay), TR-FRET. The data set is classed as biochemical. Conditions: 0.4 μM ATP, 60 min; pIC50 = -log IC50 (M); average if tested multiple times; read-out: FGFR 2 pIC50 (converted).
Data set [3] addresses FGFR1 (h) (Homo sapiens, UniProt P11362). The data set can be described thus: FGFR1 (enzymatic assay), TR-FRET. In kind it is biochemical. The following applies: FGFR 1 pIC50, 5 μM ATP, 60 min; pIC50 = -log IC50 (M); average if tested multiple times.
In data set [4] the target is T1, Ba/F3-FGFR3-transfected cells (Homo sapiens, UniProt P22607, cells depend on it, form not given).
T1 construct: BAF3-FGFR3 (MIN IL3 Alamar Blue- pIC50); other: minus IL3; 24 hours, Alamar Blue
The data set can be described thus: Ba/F3-FGFR3 (minus IL3 or plus IL3) cellular proliferation assay, Alamar Blue. The data set is classed as cell-based. The following applies: minus IL3; 24 hours, Alamar Blue. The procedure:
(§1) Ba/F3-FGFR3 (Minus IL3 or Plus IL3) (Cellular Proliferation Assay)
(§2) In a 384 well plate, 100 nl of compound dilution in DMSO was sprayed before adding 50 μl cell culture medium (phenol red free RPMI-1640, 10% FBS, 2 mM L-Glutamine and 50 μg/ml Gentamycin) containing 20000 cells per well of Ba/F3-FGFR3-transfected cells. Cells were put in an incubator at 37° C. and 5% CO2. After 24 hours, 10 μl of Alamar Blue solution (0.5 mM K3Fe(CN)6, 0.5 mM K4Fe(CN)6, 0.15 mM Resazurin and 100 mM Phosphate Buffer) was added to the wells, incubated for 4 hours at 37° C. and 5% CO2 before RFU's (Relative Fluorescence Units) (ex. 540 nm., em. 590 nm.) were measured in a fluorescence plate reader.
(§3) In this assay, the inhibitory effect of different compound concentrations (range 10 μM to 0.1 nM) was determined and used to calculate an IC50 (M) and pIC50 (−log IC50) value. As a counterscreen the same experiment was performed in the presence of 10 ng/ml murine IL3.
Background: Resazurin is reduced to fluorescent resorufin, in cell work by metabolically active cells.

Data set [5] relates to Ba/F3-FGFR3-transfected cells. The data set is described as above. The data set is classed as cell-based. The following applies: plus IL3 (10 ng/ml murine IL3, counterscreen); 24 hours, Alamar Blue; read-out: BAF3-FGFR3 (PLUS IL3 Alamar Blue pIC50) (converted). The procedure:
as §1, §2, §3
A general note: Counterscreens check selectivity or assay interference.

Data set [6] concerns the target Ba/F3-FGFR4-transfected cells (Homo sapiens, UniProt P22455). The data set can be described thus: Ba/F3-FGFR4 cellular proliferation assay, Alamar Blue. In kind it is cell-based. Conditions: 24 hours. How it is done: Ba/F3-FGFR4 (Cellular Proliferation Assay)
as §2, with “Ba/F3-FGFR4-transfected” for “Ba/F3-FGFR3-transfected”
In this assay, the inhibitory effect of different compound concentrations (range 10 μM to 0.1 nM) was determined and used to calculate an IC50 (M) and pIC50 (−log IC50) value.

The target in data set [7] is T2, Ba/F3-KDR-transfected cells (Homo sapiens, UniProt P35968, cells depend on it, form not given).
T2 construct: BAF3-KDR (MIN IL3 Alamar Blue pIC50); other: minus IL3; 24 hours, Alamar Blue
T2 sequence (P35968 whole entry, change not shown): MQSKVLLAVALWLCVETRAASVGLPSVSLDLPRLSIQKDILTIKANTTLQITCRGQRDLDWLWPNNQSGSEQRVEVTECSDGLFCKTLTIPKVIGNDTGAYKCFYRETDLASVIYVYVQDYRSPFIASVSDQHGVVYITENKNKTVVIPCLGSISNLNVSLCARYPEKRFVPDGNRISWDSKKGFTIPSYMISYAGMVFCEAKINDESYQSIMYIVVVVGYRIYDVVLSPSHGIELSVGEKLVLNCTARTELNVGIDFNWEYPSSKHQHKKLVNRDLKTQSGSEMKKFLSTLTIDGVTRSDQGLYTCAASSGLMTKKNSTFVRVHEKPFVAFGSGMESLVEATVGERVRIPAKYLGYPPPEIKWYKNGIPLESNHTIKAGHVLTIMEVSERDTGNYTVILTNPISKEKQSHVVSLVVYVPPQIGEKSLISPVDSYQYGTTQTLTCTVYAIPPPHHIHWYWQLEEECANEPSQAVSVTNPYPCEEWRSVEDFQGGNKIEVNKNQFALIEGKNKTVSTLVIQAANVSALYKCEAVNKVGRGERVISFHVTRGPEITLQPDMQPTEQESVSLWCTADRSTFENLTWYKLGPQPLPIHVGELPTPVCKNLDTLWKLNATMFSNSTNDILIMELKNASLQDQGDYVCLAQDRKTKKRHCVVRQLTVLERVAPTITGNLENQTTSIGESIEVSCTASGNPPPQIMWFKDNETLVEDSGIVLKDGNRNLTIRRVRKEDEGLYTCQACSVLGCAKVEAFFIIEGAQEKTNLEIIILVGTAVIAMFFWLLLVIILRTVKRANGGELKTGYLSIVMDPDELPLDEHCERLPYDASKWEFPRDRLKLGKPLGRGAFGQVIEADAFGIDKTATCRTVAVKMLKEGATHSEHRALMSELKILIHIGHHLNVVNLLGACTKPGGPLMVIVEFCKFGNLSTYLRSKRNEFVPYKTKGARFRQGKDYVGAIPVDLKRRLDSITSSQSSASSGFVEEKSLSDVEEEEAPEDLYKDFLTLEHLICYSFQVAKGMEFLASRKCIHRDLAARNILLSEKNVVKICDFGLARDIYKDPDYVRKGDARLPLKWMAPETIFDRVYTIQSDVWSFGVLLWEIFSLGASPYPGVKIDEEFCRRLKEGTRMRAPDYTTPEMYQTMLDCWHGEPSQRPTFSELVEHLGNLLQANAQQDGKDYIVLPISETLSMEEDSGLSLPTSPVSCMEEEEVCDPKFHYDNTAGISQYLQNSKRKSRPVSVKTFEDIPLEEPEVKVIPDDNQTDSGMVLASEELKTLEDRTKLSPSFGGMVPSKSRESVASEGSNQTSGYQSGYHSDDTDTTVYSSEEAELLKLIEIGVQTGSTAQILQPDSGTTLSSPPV
The data set can be described thus: Ba/F3-KDR (minus IL3 or plus IL3) cellular proliferation assay, Alamar Blue. The data set is classed as cell-based. Conditions: minus IL3; 24 hours, Alamar Blue. The procedure:
(§4) Ba/F3-KDR (Minus IL3 or Plus IL3) (Cellular Proliferation Assay)
as §2, with “Ba/F3-KDR-transfected” for “Ba/F3-FGFR3-transfected”
as §3

Data set [8] concerns Ba/F3-KDR-transfected cells. The data set is described as above. The following applies: plus IL3 (10 ng/ml murine IL3, counterscreen); 24 hours, Alamar Blue; read-out: BAF3-KDR (PLUS IL3 Alamar Blue pIC50) (converted). In kind it is cell-based. How it is done:
as §4
as §2, with “Ba/F3-KDR-transfected” for “Ba/F3-FGFR3-transfected”
as §3

Data set [9] has as its target FGFR3 (h) (Homo sapiens, UniProt P22607). The data set can be described thus: FGFR3 (enzymatic assay), TR-FRET. The data set is classed as biochemical. Conditions: 25 μM ATP, 60 min; pIC50 = -log IC50 (M); average if tested multiple times; read-out: hFGFR 3 pIC50 (converted).
In data set [10] the target is KDR (h) (Homo sapiens, UniProt P35968). The data set is described as follows: KDR (VEGFR2) (enzymatic assay), TR-FRET. In kind it is biochemical. The following applies: 3 μM ATP, 120 min; pIC50 = -log IC50 (M); average if tested multiple times; read-out: VEGFR KDR pIC50 (converted). The procedure:
KDR (VEGFR2) (Enzymatic Assay)
In a final reaction volume of 30 μL, KDR (h) (150 ng/ml) was incubated with 50 mM HEPES pH 7.5, 6 mM MnCl2, 1 mM DTT, 0.1 mM Na3VO4, 0.01% Triton-X-100, 500 nM Btn-Flt3 and 3 μM ATP in the presence of compound (1% DMSO final). After incubation for 120 minutes at room temperature the reaction was stopped with 2.27 nM EU-anti P-Tyr, 7 mM EDTA, 31.25 nM SA-XL-665 and 0.02% BSA which was present for 60 minutes at room temperature. Time-Resolved Fluorescence Resonance Energy Transfer (TR-FRET) signal (ex340 nm. Em 620 nm, em 655 nm) was measured afterwards and results are expressed in RFU (Relative Fluorescence Units). In this assay, the inhibitory effect of different compound concentrations (range 10 μM to 0.1 nM) was determined and used to calculate an IC50 (M) and pIC50 (−log IC50) value.

Data set [11] has as its target T3, Ba/F3-FGFR1-transfected cells (Homo sapiens, UniProt P11362, cells depend on it, form not given).
T3 construct: other: minus IL3; 24 hours, Alamar Blue
The data set is described as follows: Ba/F3-FGFR1 (minus IL3 or plus IL3) cellular proliferation assay, Alamar Blue. In kind it is cell-based. The following applies: minus IL3, 24 hours. How it is done: Ba/F3-FGFR1 (Minus IL3 or Plus IL3) (Cellular Proliferation Assay)
as §2, with “Ba/F3-FGFR1-transfected” for “Ba/F3-FGFR3-transfected”
as §3

Some results are limits rather than exact numbers.

Chain of Ba/F3-FGFR4-transfected cells (P22455 whole entry, change not shown): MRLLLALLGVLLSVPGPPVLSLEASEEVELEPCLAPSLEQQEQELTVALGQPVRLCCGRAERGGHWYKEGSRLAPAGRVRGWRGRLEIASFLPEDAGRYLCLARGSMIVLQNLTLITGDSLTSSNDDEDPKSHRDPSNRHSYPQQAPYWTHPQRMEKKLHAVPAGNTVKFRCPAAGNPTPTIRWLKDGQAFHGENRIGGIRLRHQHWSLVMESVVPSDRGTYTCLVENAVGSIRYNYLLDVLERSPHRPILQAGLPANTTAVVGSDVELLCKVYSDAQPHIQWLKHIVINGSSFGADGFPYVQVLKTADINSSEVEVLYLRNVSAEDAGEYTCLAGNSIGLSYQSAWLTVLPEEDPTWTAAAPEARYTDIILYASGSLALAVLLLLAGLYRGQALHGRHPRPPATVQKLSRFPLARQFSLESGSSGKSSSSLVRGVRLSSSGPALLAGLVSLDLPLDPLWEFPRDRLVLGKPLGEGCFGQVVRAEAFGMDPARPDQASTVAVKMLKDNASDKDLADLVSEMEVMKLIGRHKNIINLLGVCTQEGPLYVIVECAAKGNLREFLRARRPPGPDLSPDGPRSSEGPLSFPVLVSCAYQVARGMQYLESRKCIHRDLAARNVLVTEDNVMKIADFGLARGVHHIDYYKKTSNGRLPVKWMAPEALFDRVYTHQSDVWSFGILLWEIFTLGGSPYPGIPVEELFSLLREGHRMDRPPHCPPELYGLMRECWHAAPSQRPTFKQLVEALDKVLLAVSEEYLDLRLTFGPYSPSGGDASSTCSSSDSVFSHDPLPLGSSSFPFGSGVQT
Chain of KDR (h) (P35968 20-1356): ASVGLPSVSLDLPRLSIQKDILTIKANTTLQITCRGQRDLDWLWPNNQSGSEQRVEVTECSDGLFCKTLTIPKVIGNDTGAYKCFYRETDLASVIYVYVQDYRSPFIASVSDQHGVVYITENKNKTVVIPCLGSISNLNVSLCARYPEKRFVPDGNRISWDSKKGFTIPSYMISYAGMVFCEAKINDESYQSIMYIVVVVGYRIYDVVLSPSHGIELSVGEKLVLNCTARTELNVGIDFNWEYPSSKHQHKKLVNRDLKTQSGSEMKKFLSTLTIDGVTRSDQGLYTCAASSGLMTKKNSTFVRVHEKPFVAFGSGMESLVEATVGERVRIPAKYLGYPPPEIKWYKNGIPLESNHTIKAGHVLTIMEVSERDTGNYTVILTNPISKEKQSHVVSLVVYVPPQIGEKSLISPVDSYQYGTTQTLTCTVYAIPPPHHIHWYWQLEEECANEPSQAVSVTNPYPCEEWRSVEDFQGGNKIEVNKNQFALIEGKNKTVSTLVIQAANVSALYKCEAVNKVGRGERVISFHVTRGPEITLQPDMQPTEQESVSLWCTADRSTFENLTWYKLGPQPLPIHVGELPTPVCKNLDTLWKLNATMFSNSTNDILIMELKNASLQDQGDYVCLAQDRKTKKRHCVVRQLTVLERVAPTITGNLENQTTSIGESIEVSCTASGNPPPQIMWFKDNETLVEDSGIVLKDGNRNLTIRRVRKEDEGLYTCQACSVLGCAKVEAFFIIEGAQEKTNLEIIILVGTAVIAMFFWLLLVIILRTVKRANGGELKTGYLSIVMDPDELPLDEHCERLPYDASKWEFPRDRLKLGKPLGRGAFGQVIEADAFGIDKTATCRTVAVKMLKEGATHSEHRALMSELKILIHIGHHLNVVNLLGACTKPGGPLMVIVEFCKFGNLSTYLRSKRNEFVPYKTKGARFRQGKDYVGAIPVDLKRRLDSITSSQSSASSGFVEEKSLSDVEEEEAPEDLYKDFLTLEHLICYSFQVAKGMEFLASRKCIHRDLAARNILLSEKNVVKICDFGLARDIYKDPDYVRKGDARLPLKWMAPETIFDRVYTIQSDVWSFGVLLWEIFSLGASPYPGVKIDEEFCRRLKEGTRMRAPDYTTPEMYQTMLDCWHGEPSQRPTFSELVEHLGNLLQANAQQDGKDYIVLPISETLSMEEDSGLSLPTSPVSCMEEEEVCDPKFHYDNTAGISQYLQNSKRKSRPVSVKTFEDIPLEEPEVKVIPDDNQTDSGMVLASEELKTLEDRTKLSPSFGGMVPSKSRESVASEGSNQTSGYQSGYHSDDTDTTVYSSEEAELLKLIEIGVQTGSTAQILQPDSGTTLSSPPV
Chain of FGFR1 (h) (P11362 22-822): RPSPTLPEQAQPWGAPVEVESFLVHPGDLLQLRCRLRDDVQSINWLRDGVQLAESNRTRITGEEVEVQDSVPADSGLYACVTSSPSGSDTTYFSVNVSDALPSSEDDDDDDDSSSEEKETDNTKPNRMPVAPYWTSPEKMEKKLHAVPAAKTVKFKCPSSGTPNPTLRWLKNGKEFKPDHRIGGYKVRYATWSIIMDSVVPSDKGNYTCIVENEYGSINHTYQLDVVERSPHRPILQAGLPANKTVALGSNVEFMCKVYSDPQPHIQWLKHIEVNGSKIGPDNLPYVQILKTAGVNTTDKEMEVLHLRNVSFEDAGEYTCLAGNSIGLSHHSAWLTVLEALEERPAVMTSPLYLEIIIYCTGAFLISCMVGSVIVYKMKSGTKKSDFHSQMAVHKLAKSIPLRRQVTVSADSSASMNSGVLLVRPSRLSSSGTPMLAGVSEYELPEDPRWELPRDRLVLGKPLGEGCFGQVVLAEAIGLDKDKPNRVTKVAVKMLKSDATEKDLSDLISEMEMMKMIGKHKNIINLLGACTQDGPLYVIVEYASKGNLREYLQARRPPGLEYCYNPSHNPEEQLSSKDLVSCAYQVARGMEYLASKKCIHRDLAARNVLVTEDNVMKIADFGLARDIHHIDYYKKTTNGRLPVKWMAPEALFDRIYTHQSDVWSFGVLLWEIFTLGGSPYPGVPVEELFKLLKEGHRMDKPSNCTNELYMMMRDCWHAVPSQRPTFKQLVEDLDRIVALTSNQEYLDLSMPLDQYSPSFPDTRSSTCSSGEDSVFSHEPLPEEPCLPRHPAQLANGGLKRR
Chain of FGFR2 (h) (P21802 22-821): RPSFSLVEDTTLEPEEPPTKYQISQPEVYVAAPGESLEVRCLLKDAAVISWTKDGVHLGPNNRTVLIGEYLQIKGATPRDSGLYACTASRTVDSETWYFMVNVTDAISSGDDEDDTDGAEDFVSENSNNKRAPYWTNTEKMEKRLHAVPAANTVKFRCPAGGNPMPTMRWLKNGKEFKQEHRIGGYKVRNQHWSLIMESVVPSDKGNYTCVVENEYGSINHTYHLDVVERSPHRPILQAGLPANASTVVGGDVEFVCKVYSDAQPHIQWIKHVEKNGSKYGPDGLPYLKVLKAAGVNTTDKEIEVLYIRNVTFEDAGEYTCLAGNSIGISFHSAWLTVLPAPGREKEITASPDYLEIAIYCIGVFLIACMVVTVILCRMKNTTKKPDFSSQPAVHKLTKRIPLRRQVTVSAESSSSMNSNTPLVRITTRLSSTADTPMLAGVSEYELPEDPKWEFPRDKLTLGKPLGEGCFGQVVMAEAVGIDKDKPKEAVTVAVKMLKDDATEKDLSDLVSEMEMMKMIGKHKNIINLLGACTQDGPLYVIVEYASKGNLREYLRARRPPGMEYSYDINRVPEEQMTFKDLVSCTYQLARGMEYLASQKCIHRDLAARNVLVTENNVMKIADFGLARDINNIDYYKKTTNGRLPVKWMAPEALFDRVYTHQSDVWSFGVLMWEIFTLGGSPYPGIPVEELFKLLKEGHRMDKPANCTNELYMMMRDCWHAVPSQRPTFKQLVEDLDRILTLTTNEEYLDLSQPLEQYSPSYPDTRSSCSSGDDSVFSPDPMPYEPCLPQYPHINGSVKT

For the compound `COc1cc(OC)cc(N(CCO)c2ccc3ncc(-c4ccccc4)cc3c2)c1` [Compound 50], the melting point – broadly, the temperature, or range, at which the solid turns liquid – is 111 °C. This compound also had an IC50 in [1] of 2.57e-07 M. Also, the IC50 in [2] is 5.5e-08 M. The compound further had an IC50 in data set [3] of 6.92e-08 M. In addition, the “BAF3-FGFR3 (MIN IL3 Alamar Blue- pIC50)” value in data set [4] turned out to be 5.19. The IC50 in data set [5] was over 10000 nM. In addition, the “BAF3-FGFR 4 (pIC50)” value in data set [6] is under 5. Moreover, the “BAF3-KDR (MIN IL3 Alamar Blue pIC50)” value in [7] is recorded as under 5. In addition, the IC50 in [8] was over 10000 nM. Moreover, the IC50 in [9] is 5.75e-08 M. In addition, the IC50 in data set [10] was over 1e-06 M. Moreover, the “BAF3-FGFR1 (MIN IL3 pIC50)” value in data set [11] came to 5.11.
`COc1cc(OC)c(F)c(N(CCNC(C)C)c2ccc3ncc(-c4cnn(C)c4)cc3c2)c1F` [Compound 42]: the melting point stood at 75 °C. This compound showed an IC50 in data set [1] of 2.88e-09 M. Moreover, in data set [2], the IC50 was 3.16e-09 M. The compound further had an IC50 in data set [3] of 1.15e-09 M. The “BAF3-FGFR3 (MIN IL3 Alamar Blue- pIC50)” value in data set [4] is 8.25. In addition, the IC50 in data set [5] was over 10000 nM. In addition, the “BAF3-FGFR 4 (pIC50)” value in [6] was 8.25. The “BAF3-KDR (MIN IL3 Alamar Blue pIC50)” value in data set [7] is reported as 6.95. In addition, the IC50 in data set [8] is over 10000 nM. The IC50 in data set [9] was 3.39e-09 M. Also, the IC50 in [10] was 1.58e-08 M. The “BAF3-FGFR1 (MIN IL3 pIC50)” value in [11] is listed as 8.95.
Turning to `COc1cc(OC)cc(N(CCO)c2ccc3ncc(-c4ccn(C)c4)cc3c2)c1` [Compound 61], the melting point stood at 158 °C. Also, in [1], the IC50 was 2.09e-08 M. Also, in [2], the IC50 is about 1.26e-08 M. Further, in data set [4], the “BAF3-FGFR3 (MIN IL3 Alamar Blue- pIC50)” value came out at 5.84. Further, the IC50 in data set [5] is over 10000 nM. Also, in [6], the “BAF3-FGFR 4 (pIC50)” value is 5.66. Besides, the “BAF3-KDR (MIN IL3 Alamar Blue pIC50)” value in data set [7] is 5.40. In addition, the IC50 in [8] was over 10000 nM. Also, the IC50 in data set [9] is 2.69e-09 M. Moreover, the IC50 in data set [10] was 1.91e-07 M. In data set [11], the “BAF3-FGFR1 (MIN IL3 pIC50)” value is given as 6.02.
As to `COc1cc(OC)cc(N(Cc2ncc[nH]2)c2ccc3ncc(-c4ccccc4)cc3c2)c1` [Compound 52], the melting point came to 133 °C. In data set [1], this compound gave an IC50 of 1.66e-08 M. In [2], the IC50 is 6.61e-09 M. The compound also gave an IC50 in data set [3] of 1.58e-08 M. For the same compound, the “BAF3-FGFR3 (MIN IL3 Alamar Blue- pIC50)” value in [4] was determined as 6.00. Further, the “BAF3-FGFR 4 (pIC50)” value in [6] came to 5.48. For the same compound, the “BAF3-KDR (MIN IL3 Alamar Blue pIC50)” value in data set [7] was under 5. Besides, in data set [9], the IC50 is 8.51e-09 M. The IC50 in [10] was 9.33e-07 M. The “BAF3-FGFR1 (MIN IL3 pIC50)” value in data set [11] is 5.77.

The values are drawn from patent US10039759B2, “Quinolines as FGFR kinase modulators” (priority 2011, dated 2018).
